The test system of data set [1] is A375 cells. Nature of the data set: Cytotoxicity in A375 cells. The data set is classed as cell-based, human.
Data set [2] has as its system Sk-mel-28 cells. In words: Cytotoxicity in Sk-mel-28 cells. The data set is classed as cell-based, human.
Data set [3] has as its system PD-L1 in A375 melanoma cells. In words: Cell surface PD-L1 expression by flow cytometry. The data set is classed as cell-based, human. As for the experimental part: FIG. 4. […] Three melanoma cell lines were treated with 250 units/mL of interferons for 48 hours. Whole cell lysates were collected and subjected to RPPA assay. […] Red, high expression; green, low expression. All the data points were normalized for protein loading and transformed to linear value. […] Cell surface expression of PD-L1 was determined by flow cytometry. Representative histograms out of two independent experimental replicates are shown. C) IFN-α or IFN-γ (100 Units/ml); D-E) IFN-α or IFN-γ (250 Units/ml).
Expression levels of PD-L1 detected by Flow Cytometry.

In data set [4] the test system is PD-L1 in A375 cells. In words: PD-L1 expression by immunofluorescence staining. The data set is classed as cell-based, human. As for the experimental part: FIG. 5. Expression of PD-L1 in metastatic melanoma A375 cells detected by immunofluorescence staining. […]. Cells were then fixed and permeabilized with 4% formaldehyde and methanol. Samples were blocked in blocking buffer containing 5% horse serum for 1 hour. The slides were then allowed to incubate in a 1:50 PD-L1 antibody dilution overnight at 4° C. and DAPI reagent for 1 hour. Representative images are shown stained with PD-L1 antibody (green) and DAPI (blue fluorescence). (Original magnifications, 100×). Representative images for 2 experimental replicates are shown.
Expression levels of PD-L1 detected by Immunofluorescence. A375 cells were plated on coverslips and incubated with 250 units/mL of IFN-α or IFN-γ in the presence or absence of […] of nNOS inhibitors for 72 hours. After treatment, cells on coverslips were fixed with 4% formaldehyde/PBS for 15 minutes at room temperature, followed by incubation with ice-cold 100% methanol for 10 minutes at −20° C. Samples were then incubated in blocking buffer (1×PBS, 5% horse serum, 0.3% Triton X-100) for 60 minutes, then in a 1:50 PD-L1 antibody dilution in dilution buffer (1×PBS, 1% BSA, 0.3% Triton X-100) overnight at 4° C. Stained specimens were rinsed with PBS then cured in the dark with DAPI fluorescence staining reagent for 1 hour. Slides were visualized and recorded using the BZ-X700 microscope (Keyence, Itasca, IL).

The test system of data set [5] is Human A375 metastatic melanoma xenograft. Nature of the data set: A375 melanoma xenograft, IFN-γ with or without MAC-3-190. The data set is classed as in vivo, nude mice. As for the experimental part: FIG. 6. […] Data was represented as mean±SD.
FIG. 7. Expression of PD-L1 in xenograft tumor samples obtained from the subject is administered an inhibitor of NOS and further is administered study detected by immunohistochemistry staining. PD-L1 staining (brown) of specimens at 100× (A) and 20× (B) magnification. […] . PD-L1 (C) and CD8 (D) stained specimens captured at 2× magnification.
In Vivo Xenograft Melanoma. […] .

Data set [6] has as its system nNOS expression in WM3211 cells. Nature of the data set: Western blot of nNOS expression in primary melanoma WM3211 cells. The data set is classed as cell-based, human. The following applies: IFN-γ persisted after 96 hours, IFN-α within 4 hours, recovered by 24 hours. The protocol:
(§1) FIG. 2. A-C) Effects of IFN-α and IFN-γ treatment on nNOS expression levels in human primary melanoma WM3211 cells (A-B) and metastatic melanoma A375 cells. C) Distinct effects of IFN-α and IFN-γ on nNOS expression of A375 metastatic melanoma cells. A375 cells were treated with 500 units/mL of IFN-α or IFN-γ for 48 hours and whole cell lysates were collected. Samples were subjected to Western blot analysis for nNOS. A control of the protein loading was performed by detecting actin. D) Intracellular nitric oxide levels detected by microplate reader using DAF-FM fluorescence probe after IFN-α or IFN-γ treatment for 24 hours. E) IFN-γ-inducible nNOS expression was abrogated in nNOS-depleted melanoma cells. A375 cells transfected with shRNA-nNOS were treated with IFN-γ for 24 hours, followed by Western blot analysis.
Protein isolation and Western blotting. All samples were kept at 4° C. unless otherwise noted. […]
Equal amounts of protein, as detected by Bradford assay, were loaded and resolved on 7.5% SDS-polyacrylamide gels, then transferred to Immobilon-P^SQ polyvinylidene difluoride (PVDF) membranes (ISEQ00010; Merck KGaA, Darmstadt, Germany). […] Labeled bands were detected using SuperSignal horseradish peroxidase chemiluminescence reagents (1859674; 1859675; Thermo Fisher Scientific, Waltham, MA) and images were captured and analyzed using the Bio-Rad ChemiDoc XRS^+ System.
On the technique in general: Immunoblotting shows a protein as a band on a membrane.

The subject of data set [7] is STAT1. In words: Western blot of STAT1 in A375 cells. The note with it: interferon alone. In kind it is cell-based, human. The protocol:
FIG. 3. […] A375 cells were treated with 100 units/mL and 250 units/mL of IFN-γ or IFN-α for 24 hours; whole cell lysates and nuclear extracts were used for Western blot analysis to detect STAT3 and pSTAT3 respectively. […] Protein isolation and Western blotting. All samples were kept at 4° C. unless otherwise noted.
The membranes were blocked using 10% non-fat milk (NOS1, STAT1/2, Actin, Lamin A/C) or 5% bovine serum albumin (BSA; SH3057402; Fisher Scientific, Waltham, MA) (p-STAT1/3), then incubated with primary antibodies for 1 hour at room temperature or overnight at 4° C., followed by secondary antibodies for 1 hour at room temperature as recommended by the manufacturer. Blots were washed extensively with TBS-T after each antibody incubation.

The subject of data set [8] is WM115, Sk-mel-28 and A375. In words: Reverse Phase Protein Array in three human melanoma cell lines. In kind it is cell-based. The following applies: 250 units/mL interferon, average of three cell lines. The protocol: FIG. 4. A) Heat map of Reverse Phase Protein Array (RPPA) showing distinct effects of IFN-α and IFN-γ on protein expression levels in three human melanoma cell lines (WM115, Sk-mel-28 and A375). Three melanoma cell lines were treated with 250 units/mL of interferons for 48 hours. Whole cell lysates were collected and subjected to RPPA assay. […] Red, high expression; green, low expression. All the data points were normalized for protein loading and transformed to linear value. […] Average changes of three cell lines detected by RPPA were shown in the figure. *, p<0.05 in comparison to control and IFN-α. C-E) Induction of PD-L1 by IFN-γ was diminished by the co-treatment of nNOS inhibitors. […]. Cell surface expression of PD-L1 was determined by flow cytometry. Representative histograms out of two independent experimental replicates are shown. C) IFN-α or IFN-γ (100 Units/ml); D-E) IFN-α or IFN-γ (250 Units/ml).
Reverse Phase Protein Array. Plated cells were treated with 250 units/mL of IFN-α or IFN-γ for […]. After washing with 1×PBS, lysis buffer (1% Triton X-100, 50 mM HEPES, pH 7.4, 150 mM NaCl, 1.5 mM MgCl2, 1 mM EGTA, 100 mM NaF, 10 mM Na pyrophosphate, 1 mM Na3VO4, 10% glycerol and 1% PIC) was added to the plates, followed by incubation on ice for 20 minutes with occasional shaking. Samples were then collected via scraping and spun down at 14,000 g^−1 for 10 minutes at 4° C. The protein concentration was then quantified by Bradford method and adjusted to 1.5 μg/μL with lysis buffer. Cell lysates were then mixed with 4×SDS sample buffer (40% glycerol, 8% SDS, 0.25M Tris-HCl, pH 6.8 with 10% BME). Miniscule amounts of serially diluted protein samples were then dotted on a nitrocellulose coated slide and probed with validated primary antibodies and a biotin-conjugated secondary antibody. The signals were amplified using Dako-Cytomation-Catalyzed system (Dako) and visualized by diaminobenzidine (DAB) colorimetric reaction. Dilution curves were fitted with Supercurve Fitting and the protein expressions normalized for protein loading.

Data set [9] has as its system intracellular NO in melanoma cells. Nature of the data set: Intracellular nitric oxide levels, DAF-FM fluorescence probe. The data set is classed as cell-based, human. The following applies: DAF-FM probe after interferon exposure. As for the experimental part: as §1
Detection of intracellular nitric oxide levels. Cultured cells in a 96-well plate were treated with 100 units/mL of IFN-α or IFN-γ for 48 hours. Once the incubation period was complete, the media was removed and replaced with Hank's Balanced Salt Solution (HBSS). 1 μM of 4-Amino-5-methylamino-2′,7′-difluorofluorescein (DAF-FM) probe was added to each condition and fluorescence levels produced by DAF-FM were detected using a fluorescence microplate reader with excitation and emission wavelengths of 485 and 538 nm, respectively.

In data set [10] the test system is human melanoma cell lines (A375, Sk-Mel-28, wm3211). In words: Cytotoxicity by MTT colorimetric analysis in human melanoma cell lines. The note with it: read-out: Cytotoxicity (IC50 from 3 melanoma cell lines). In kind it is cell-based. As for the experimental part:
Table 1. […] All the NOS isozymes used were recombinant enzymes overexpressed in E. coli. Ki values are calculated directly using known literature methods and detailed in co-PI R. Silverman's published manuscripts (17, 18, 64, 85). Cytotoxic effects of nNOS inhibitors in human melanoma were detected by MTT colorimetric analysis (85). The IC50 values are the average of at least two human melanoma cell lines.

In data set [11] the test system is A375 human melanoma xenograft. In words: A375 melanoma xenograft, HH044 20 mg/kg (Example 2).

Turning to `N.N.[Cl][Pt][Cl]` [cisplatin], the IC50 (usually the concentration at which inhibition is half-maximal) was found to be 4.2 µM in [1] and 14.3 µM in [2].
On to `CNCc1cccc(CCc2ccc3c(C)cc(N)nc3c2)c1` [MAC-3-190], for which the “MFI of PD-L1 staining obtained via flow cytometry” value in [3] (A375 cells, IFN-γ alone or with MAC-3-190 (3 μM), 72-hour treatment) is listed as 1.9 folds of control. In data set [3] (A375 cells, co-treatment with nNOS inhibitor 3 μM, 72 hours), the “Induction of PD-L1 by IFN-γ, cell surface expression” value is given as “diminished”. For the same compound, the “IFN-γ-inducible PD-L1 expression” value in data set [4] (co-treatment with 3 μM, IFN-γ 250 Units/ml, 72 hours) is listed as “significantly diminished”. Besides, the “basal level of PD-L1” value in [4] (treatment with inhibitor alone, compared to control) is on record as “did not alter”. Also, the “PD-L1 expression in xenograft tumors” value in data set [5] (10 mg/kg/day) is “significantly reduced”. In [5] (21-day treatment, IFN-γ 1000 units per mouse i.p. daily, with or without MAC-3-190 5 mg/kg/day), the “PD-L1-positive staining in xenograft tumors (immunohistochemistry)” value is recorded as more than 15%. Also, in data set [5] (co-treatment, 5 mg/kg subcutaneously injected daily, p<0.05 compared to IFN-γ treatment), the “induction in tumor volume by IFN-γ, end of study” value was “effectively diminished”.
Regarding IFN-α, the nNOS expression levels result in data set [6] is given as “undetectable levels”. Further, the “expression of STAT1” value in [7] is “increase”. Moreover, the “cell surface expression of PD-L1” value in data set [3] (interferon alone, three cell lines) is on record as “reduced”. For the same compound, the “extracellular expression of PD-L1” value in data set [4] (interferon alone, 250 Units/ml, 72 hours) was “low basal expression”. Further, the “PD-L1 expression level (RPPA)” value in data set [8] is on record as “absent”. Further, the “intracellular NO levels” value in data set [9] was “significantly decreased”.
Consider `N=C(Nc1ccc(CCNCc2cccc(NC(=N)c3cccs3)c2)cc1)c1cccs1` [HH044], for which the IC50 in data set [10] was 5.27 ± 3.3 µM. The “lung, liver, and kidney weights” value in [11] (20 mg/kg/day for 21 days) is listed as “no significant changes”. Further, the body weight in data set [11] (20 mg/kg/day for 21 days, 23.9 g in control group) was 22.6 g. The “reduction in body weight” value in [11] (20 mg/kg/day, not statistically significant (p>0.05)) was less than 10%.

For the origin of these results see US12083113B2, “Use of neuronal nitric oxide synthase inhibitors for immunotherapy in melanoma patients” (Northwestern University, priority 2018, dated 2024).
